# Measured values from US9377466B2, “Compounds and methods” (Modpro AB, priority 2010, dated 2016).
# Side chains are listed from the residue outwards. * marks the point of attachment. Benzoyl(4-SO2NH2) = NS(=O)(=O)c1ccc(C(=O)*)cc1; Acridin9yl = c1ccc2c(*)c3ccccc3nc2c1; X1 = COc1ccc2cc(C(=O)*)c(=O)oc2c1; Ahx = NCCCCCC(=O)O
# Experiments:
# [1] = target: phosphopeptides; conditions: literature; cited from earlier work
# [2] = target: T1, hAChE (Homo sapiens, UniProt P22303); assay: Capture of hAChE from cerebrospinal fluid by binder on nanoparticles (SDS-PAGE, nanoparticle ELISA); format: binding; conditions: binder on Pluronic-coated polystyrene nanoparticles, patient CSF, sandwich ELISA
# T1 construct: monitoring the capturing of hAChE from cerebrospinal fluid (CSF) obtained from Uppsala University hospital; from tissue; host or cells: human cerebrospinal fluid (Uppsala University Hospital)
# Protocol: The selectivity of 4-C10L17-Ac was determined by monitoring the capturing of hAChE from cerebrospinal fluid (CSF) obtained from Uppsala University hospital. CSF represents a complex biological milieu with several other proteins in high concentration and one of considerable interest with regards to future applications. The selected binder was resynthesized with an acetamidomethyl-(Acm-) protected Cys residue in position 24, instead of an Ala in this position, and attached to polystyrene nanoparticles coated with Pluronic® F108-PDS by disulfide bond formation after Acm deprotection. […] After the washing steps the particles were analyzed by ELISA and gel electrophoresis. […]
# The capture of hAChE by 4-C10L17-Ac was also analyzed by a nanoparticle ELISA based on luminescence. […] After three washing steps the substrate luminol was added and the resulting luminescent signal recorded. […]
# Pluronic F108-PDS (Allvivo Inc.) was adsorbed to polystyrene latex nanoparticles (Bangs laboratories Inc.) by incubating a 2% (w/v) suspension of particles with 10 mg/mL of Pluronic F108-PDS over night at room temperature under constant shaking. […] Aliquots of 8 μL of the supernatants were analyzed by gradient SDS-PAGE gels electrophoresis using NuPAGE® Novex Bis-Tris 4-12% (v/w) gel and MES running buffer (Invitrogen). […]
# [3] = CD spectroscopy, mean residue ellipticity of the sixteen scaffold polypeptides; format: physicochemical; conditions: error ±1000
# Protocol: The mean residue ellipticities at 222 nm, [θ]222, □ of the sixteen scaffold polypeptides were recorded at two concentrations, approximately 30 μM and approximately 1 μM, to characterize the state of aggregation, cf.
# The degree of helix formation is related to the monomer-dimer equilibrium since monomers are unordered with low helical content whereas dimers are highly helical. […] While the ^1H NMR spectra have not been recorded of all sequences and of all polypeptide conjugates, it is likely that the sequences presented here are best described as molten globules.
# [4] = system: α-casein; assay: Three-step fluorescence titration with α-casein (microtitre plate); format: binding; conditions: polypeptide without PP1; binder in the absence of Zn^2+ ions
# Protocol: In a preliminary and simple assay executable in microtitre plate format, each of the eight binder candidates at a concentration of 500 nM in 10 mM HEPES buffer and 150 mM NaCl at pH 7.2, equipped with the fluorophor 7-methoxycoumarin-3-carboxylic acid, were titrated with α-casein in three steps (FIG. 8). Concentrations of peptides were determined from the absorbance of the coumarine probe and stock solutions at concentrations of 5 μM were prepared from which aliqiuots were transferred to the microtitre plate. […] The fluorescence emission spectre were recorded in the absence of protein, and in the presence of 500 nM, 1000 nM and 1500 nM protein to determine in a qualitative way whether or not binding was saturated at 500 nM concentration of both binder and protein. Saturation within experimental error at those concentrations is compatible with low nM affinity and tight binding.
# All fluorescence experiments were conducted in 96 well polystyrene plates. All readings were performed by plate reader Molecular Devices Spectra max GEMINI XPS at 25° C. Each plate contained 300 μL of analyte. All polystyrene plates were specially prepared prior the measurements in order to minimize the unspecific binding of the analyte. All wells were filled with 1% aqueous solution of Pluronic and left overnight. […]
# [5] = target: T2, HCAII (Homo sapiens, UniProt P00918); assay: SPR biosensor analysis, immobilized HCAII; format: binding; conditions: ratio of SPR dissociation constants
# T2 construct: purchased Sigma
# Protocol: The sixteen polypeptide conjugates were also characterized by SPR biosensor analysis (Biacore®, GE Healthcare), using a Biacore® 2000 instrument, Biacore® CM-5 chip and HBS-EP buffer pH 7.4 (Biacore®, GE Healthcare) with addition of 1% DMSO for the interaction studies. Peptide solutions were prepared by dilution in buffer from 20 μM stock solutions in DMSO. HCAII was immobilized on the chip using standard EDC/NHS coupling in Acetate buffer pH 5.5. The binders were allowed to flow over the chip at 7 concentrations in the range from 1 nM to 500 nM and the interactions were evaluated using a 1:1 binding model (BiaEvaluation).
# HCAI and HCAII were immobilized in different flowcells on a CM-5 (Biacore) chip using standard EDC/NHS coupling in Acetate buffer at pH 5.5.
# SPR measurements were performed on a Biacore® 2000 instrument, with the proteins immobilized on a Biacore® CM-5 sensor chips (GE Healthcare). All interaction studies were performed in Biacore® HSB-EP buffer with the addition of 1% (v/v) DMSO. HCAII (Sigma, lyophilized powder) was dissolved in Acetate buffer pH 5.5 to a 2 mg/mL solution. HCAII were conjugated to the surface by EDC/NHS coupling reactions in Acetate buffer pH 5.5. Solutions of the polypeptide binders were prepared in HBS-EP buffer from stock solutions of 20 μM in DMSO and allowed to flow over the surface at 20 μL/min, with blank injections after every series. […]
# [6] = system: human Carbonic Anhydrase (HCAI and HCAII); assay: Extraction from lysed blood by binders on nanoparticles (SDS-PAGE, MS); format: binding; conditions: lysed fresh blood, silver stained gel
# Protocol: The selected binders were resynthesized with an Acm-protected Cys residue in position 24. After removal of the Acm group the binders were immobilized on polystyrene nanoparticles coated with Pluronic® F108-PDS, by incubation for 1 hour in 10 mM Phosphate buffer at pH 7.4 containing 150 mM NaCl. The coating material forms monolayers of PEG equipped with activated disulfide groups that spontaneously react with free thiols under the release of 2-mercaptopyridine (Fromell, K., Hulting, G., Ilichev, A., Larsson, A. & Caldwell, K. C. Analytical Chemistry 79, 8601-07 (2007)).
# Approximately 60 μL of freshly drawn blood was lysed by dilution in 240 μL of distilled water followed by centrifugation to remove cell debris. HCAII resides in the red blood cells and in order to access the protein, cells have to be lysed. The supernatant was isolated and incubated with the functionalized nanoparticles for 30 minutes to allow them to capture HCAII. The particles were washed three times in PBS, and centrifuged after each wash. The binders and the captured proteins were cleaved from the particles using dithiothreitol and separated from the particles by centrifugation. […]
# There are two isoforms of human Carbonic Anhydrase, HCA I and HCAII, in blood. […] The bands from the gel were cut, […] digested and analysed by MALDI-TOF-MS, displaying that the bands contained both isoforms. […]
# [7] = Solubility in buffer; conditions: sequence conjugated to a fluorescein probe
# T1 sequence (P22303 32-614): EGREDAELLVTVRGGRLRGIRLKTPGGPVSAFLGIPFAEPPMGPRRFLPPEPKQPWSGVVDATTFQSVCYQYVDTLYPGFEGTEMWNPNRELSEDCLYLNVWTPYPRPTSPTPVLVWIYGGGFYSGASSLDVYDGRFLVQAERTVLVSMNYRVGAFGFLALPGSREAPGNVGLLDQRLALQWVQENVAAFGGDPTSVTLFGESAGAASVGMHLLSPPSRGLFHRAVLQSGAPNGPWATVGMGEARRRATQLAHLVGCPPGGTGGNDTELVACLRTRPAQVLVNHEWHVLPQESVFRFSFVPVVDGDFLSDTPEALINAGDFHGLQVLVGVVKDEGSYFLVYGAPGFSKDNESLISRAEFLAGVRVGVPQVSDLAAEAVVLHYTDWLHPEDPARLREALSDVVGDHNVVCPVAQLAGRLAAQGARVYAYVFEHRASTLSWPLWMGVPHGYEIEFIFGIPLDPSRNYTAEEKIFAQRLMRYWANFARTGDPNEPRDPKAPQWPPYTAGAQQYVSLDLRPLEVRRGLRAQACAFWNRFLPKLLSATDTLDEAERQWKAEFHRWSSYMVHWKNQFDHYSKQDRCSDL
molecule,measurement,setting,value
"O=C(O)c1cc(CN(Cc2ccccn2)Cc2ccccn2)cc(CN(Cc2ccccn2)Cc2ccccn2)c1 [PP1, 3,5-Bis[[bis(2-pyridylmethyl)amino]methyl]benzoic acid]",dissociation constants for phosphopeptides,[1],μM range
Ac-NAADLEARIK(X1)HLRERLK([Ahx-Ahx-Acridin9yl])ARGPRDAAQLAEQLARAFERFARAG-NH2 (C-terminus assumed) [4-C10L17-Ac],capture of hAChE from CSF,[2],selectively extract hAChE from CSF
4-C10L17: SEQ ID NO: 8 NAADLEARIKHLRERLKARGPRDAAQLAEQLARAFERFARAG,[θ]222 at high concentration,[3]; high concentration 30-230 μM as listed per peptide,−19500 deg cm^2 dmol^−1
same,[θ]222 at low concentration,[3]; low concentration 1-5 μM as listed per peptide,−11800 deg cm^2 dmol^−1
same,"effect of α-casein on fluorescence emission spectrum, negative controls",[4],No effect
Ac-NAADLEARIRHLRERLAARGPRDAAQLAEQLARK([Ahx-Benzoyl(4-SO2NH2)])FEK(X1)FARAG-NH2 (N-terminus and C-terminus assumed) [4-C37L34-B],discrimination between HCAI and HCAII (factor),[5],approximately 30
same,proteins extracted from lysed blood,[6],extract Carbonic Anhydrases predominantly
same,solubility in buffer,[7],poorly soluble
